Measured values published in patent US20210038503A1, “COMPOSITIONS AND METHODS FOR TOPICAL TREATMENT OF DERMAL AND OCULAR CONDITIONS” (GABADERM, INC., priority 2018, published 2021).
Entries after “also recorded” stand apart in the source; their conditions may differ. Read-outs that look alike come from different tables or passages of the source.

Key:
psoriatic lesions = conditions: for Number of psoriatic lesions: 2% propofol solution twice daily
Description: Areas of the lesion are roughly outlined.
The plaque psoriatic lesion was raised and more lightly colored than the unaffected skin.

[1] = in vivo; cited from earlier work
[2] = in vivo; cited from earlier work; remark: listed apart in the source
oxalobenzone treated ear = experiment: Oxalobenzone induced mouse ear inflammatory model (ear thickness); format: in vivo; conditions: for Inflammation (ear thickness): 100 μl at 1 hour and 6 hours post challenge, 24 hours and 48 hours
Description: Animals were sensitized to oxalbenzone on the abdomen on day 2 with 150 μl 3% oxalbenzone. Animals were challenged on day 5 with 1% oxalobenzone to both sides of one ear. This served as an in vivo pharmacological disease models for psoriasis and atopic dermatitis.
Ear thickness was measured with calipers at 24 hours and 48 hours and compared to contralateral non-challenged ear. Ear thickness served as an indication of swelling due to inflammation. The greater the ear thickness, the greater the inflammation.

[3] = remark: listed apart in the source
Description: Stability was determined visually by separation of the emulsion and also analytically by changes in measured concentration of the cream and/or the formation of degradation products. […] Heavier oils include petrolatum or mineral oil.

[4] = estimated 250 times lower than rat plasma levels
[5] = local administration of propofol
[6] = 20% propofol-propylene glycol plus 30% w/w surfactant penetration enhancer
[7] = 20% w/w propofol in propylene glycol

CC(C)c1cccc(C(C)C)c1O [propofol]
Number of psoriatic lesions (psoriatic lesions; after a week): further reduced | Number of psoriatic lesions (psoriatic lesions; after three days): reduced | Plaque psoriatic lesion height and area, left forearm (psoriatic lesions; 10% propofol in cream twice daily, over the course of treatment): diminished in height and area | Local anti-inflammatory effect (psoriatic lesions; [5]): anti-inflammatory effects locally | Sustained anti-nociceptive effect (psoriatic lesions; [5]): reduced sensation of itch and burning | Psoriatic lesions (FIG. 7 legend) (psoriatic lesions; propofol in a cream based formulation): reduced | Neurogenic inflammation (psoriatic lesions; repeated application of propofol): less neurogenic inflammation | Gutate and plaque psoriatic lesions (psoriatic lesions; topical application of propofol, summary): resolution of gutate and plaque psoriatic lesions | Oral bioavailability [1]: < 10% | Plasma levels at which wakening from propofol anesthesia occurs [2]: less than 500 μg/ml | Plasma steady state levels used to maintain anesthetized state [2]: 1,000-2,000 ng/ml | Inflammation (ear thickness) (oxalobenzone treated ear; 10% w/w propofol in DMSO): significantly reduces inflammation | Inflammation (ear thickness) (oxalobenzone treated ear; 20% w/w propofol in DMSO): significantly reduces inflammation | Skin inflammation / ear swelling (oxalobenzone treated ear; topical propofol, formulation not specified at the place): reduces skin inflammation; also recorded: reduces ear swelling and inflammation | Increase of plasma concentration [6]: 3 to 5 fold | Plasma concentration [6]: approximately 350 ng/ml | Increase of plasma concentration [7]: 2-3 fold | Plasma concentration [7]: 175 to 200 ng/mL | Plasma concentration (rats, 500 mg of 100% propofol on skin, ~[…] body surface area): 400 ng/mL | Plasma levels (rats, 20% w/w propofol in petrolatum (100 mg total dose), ~[…] body surface area): 50 to 100 ng/mL | Stability ([3]; oil-in-water or water-in-oil formulations with a heavier oil or longer chain oil (petrolatum or mineral oil)): stable | Stability ([3]; penetration enhancer limited to less than 10% w/w, particularly propofol greater than 2%): stable | Stability ([3]; propofol >10% w/w in HRT™ (gel or cream)): not stable | Stability ([3]; propofol >10% w/w in Lipoderm®): not stable | Stability ([3]; propofol >10% w/w in Medihol™ gel base): not stable | Stability ([3]; propofol >10% w/w in Vanish-Pen™ Cream base): not stable | Stability ([3]; propofol >10% w/w in VersaPro™ (lotion or cream)): not stable | Stability ([3]; propofol at 10% w/w in Lipoderm® (mineral oil-free)): not stable | Acute skin reaction (redness with wheal-flare effect) (skin; 10% propofol in DMSO): significant burning and inflammation | Time to onset of burning and inflammation after treatment (skin; 10% propofol in DMSO): 10 to 15 min | Time until acute effect resolved (skin; 10% propofol in DMSO): about 90 minutes | Treatment effect despite initial inflammatory response (skin; 10% propofol in DMSO): significant treatment effect | Acute skin reaction (redness with wheal-flare effect) (skin; 10% propofol in mineral oil containing cream): did not result in this effect | Human equivalent plasma concentration [4]: 0.4 to 2 ng/mL
